Assay results from paper PMC5729604, “Dual inhibitors of hepatitis C virus and hepatocellular carcinoma: design, synthesis and docking studies” (Future Science OA, 2017).
In brackets after ≈: the same amount, converted by molar mass. Read-outs that look alike come from different tables or passages of the source.

Columns and labels:
[1] = tested on: human peripheral blood mononuclear cells (PBMCs); type: cell-based; details: 72 h
Method: The safe compounds on RBCs (5a-g, 5i-l, 5p-r, 5v-w, 6b-g) were subjected to the in vitro cytotoxicity assay on human peripheral blood mononuclear cells (PBMCs). Viability of cells was measured using neutral red uptake assay as described by Borenfreund and Puerner to determine the concentrations of each compound that were not cytotoxic. The results were interpreted to calculate both the lethal concentration that kills 50% of cells (LD50) and the maximum safe concentration that causes 100% viability (LD0) of each compound using GraphPad InStat 3.0 software (Figure 6 & Supplementary Table 3).
The PBMCs were isolated by density gradient centrifugation technique as described by Boyum. Blood samples were freshly collected into heparinized or ethylenediaminetetraacetic acid sterile tubes. Blood was diluted using equal volume of RPMI-1640 medium containing 25 mM HEPES and then layered over equal volume of Ficoll-Pague™ Plus (Fisher BioReagents™ Lymphocyte Separation Medium-LSM, PA, USA) and centrifuged (2000 r.p.m. for 30 min at acceleration and deceleration speeds zero & zero) at room temperature. The buffy mononuclear cell layer was collected using sterile Pasteur pipette into 50 ml sterile Falcon tube and washed twice in phosphate-buffered saline (Sigma-Aldrich) using centrifugation (1650 r.p.m. for 5 min). The isolated PBMCs viability was determined by hemocytometer count using the trypan blue exclusion method. The PBMCs were resuspended at 1 × 10^6 cells/ml in RPMI-1640 medium containing 25 mM HEPES supplemented with 10% heat-inactivated FBS. The appropriate number of cells was chosen to be 1 × 10^5 cells/well (100 μl of the prepared suspension).
A 2 mg/ml stock solution of each compound was prepared in DMF and filtered using a 0.2 μM syringe filter. The desired concentrations (20, 10, 5, 2.5 and 1.25 μg/ml) were prepared using serial dilution in a 96-well plate. Compound wells were prepared by adding 100 μl of the previously prepared concentrations to a suspension of 1 × 10^5 PBMCs in 100 μl culture media. Parallel concentrations of the solvent were prepared to be used as controls. Control wells were prepared by adding 100 μl culture media to a suspension of 1 × 10^5 PBMCs in 100 μl culture media. Blank wells contained 200 μl of culture media only (without cells or compound solution). Each set of samples was pipetted in duplicate. The plate was then gently shaken then incubated at 37°C, 5% CO2 for 72 h.
After incubation, neutral red assay was performed as described previously, and surviving cell fraction was calculated according to the previously mentioned equation. Also, the results were interpreted to calculate both the lethal concentration that kills 50% of cells (LD50) and the maximum safe concentration that cause 100% viability (LD0) of each compound using GraphPad InStat 3.0 software.

[2] = tested on: human HCC cell line HepG2; assay: cells; type: cell-based; details: for IC50: Homo sapiens, HepG2, 72 h, neutral red; for IC50 / (LD0) HepG2 / Safe doses (100% viability of HepG2) LD0: 72 h; for in vitro anticancer activity against HepG2, in words: IC50 <100 μg/ml potential, 100-1000 μg/ml moderate; for Selectivity index: LD50 on PBMC / IC50 on HepG2; for (LD0) HepG2 / Safe doses (100% viability of HepG2) LD0: human
[3] = Table 1, read-out: IC50 (HepG2)
[4] = Supplementary Table 2, read-out: Anticancer (HepG2) IC50

SMILES | IC50 [2, 3] | IC50 ([2]; read-out: IC50 against HepG2 cells) | IC50 [2, 4] | (LD0) PBMCs [1] | LD0 [1] | LD50 [1] | LD50 (PBMCs) [1] | in vitro anticancer activity against HepG2, in words [2] | Selectivity index [2] | (LD0) HepG2 [2] | Safe doses (100% viability of HepG2) LD0 [2] | LD0 on PBMCs [1]
CC(=NN=C1SC(=C2C(=O)Nc3ccccc32)C(=O)N1c1ccccc1)c1nc2ccccc2[nH]1 [Compound 6e, 2-[1-(1H-Benzimidazole-2-yl)ethylidenehydrazono]-5-(2-oxoindolin-3-ylidene)-3-phenylthiazolidin-4-one] | – | – | 110 µg/mL (≈ 231 µM) | 19.22 µg/mL | 19.22 µg/mL | 329.03 µg/mL | – | – | – | 16.75 µg/mL | 16.75 µg/mL | –
CC(=NN=C1SC(=C2C(=O)Nc3ccccc32)C(=O)N1c1ccc(Cl)cc1)c1nc2ccccc2[nH]1 [Compound 6f, 2-[1-(1H-Benzimidazole-2-yl)ethylidenehydrazono]-5-(2-oxoindolin-3-ylidene)-3-(4-chlorophenyl)thiazolidin-4-one] | – | – | 154 µg/mL (≈ 300 µM) | 253.34 µg/mL | 253.34 µg/mL | 1369.42 µg/mL | – | – | – | 35.33 µg/mL | 35.33 µg/mL | relatively high LD0 values
COc1ccc(N2C(=O)C(=C3C(=O)Nc4ccccc43)SC2=NN=C(C)c2nc3ccccc3[nH]2)cc1 [Compound 6g, 2-[1-(1H-Benzimidazole-2-yl)ethylidenehydrazono]-5-(2-oxoindolin-3-ylidene)-3-(4-methoxyphenyl)thiazolidin-4-one] | – | – | 248 µg/mL (≈ 487 µM) | 14.41 µg/mL | 14.41 µg/mL | 136.76 µg/mL | – | – | – | 18.62 µg/mL | 18.62 µg/mL | –

Now from value to molecule, other results behind:

IC50 [2, 3] | IC50 ([2]; read-out: IC50 against HepG2 cells) | IC50 [2, 4] | SMILES | (LD0) PBMCs [1] | LD0 [1] | LD50 [1] | LD50 (PBMCs) [1] | in vitro anticancer activity against HepG2, in words [2] | Selectivity index [2] | (LD0) HepG2 [2] | Safe doses (100% viability of HepG2) LD0 [2] | LD0 on PBMCs [1]
76.8 µg/mL (≈ 151 µM) | – | – | COc1ccc(N2C(=O)C(=C3C(=O)Nc4ccccc43)SC2=NN=C(C)c2cc3ccccc3o2)cc1 [Compound 6c, 2-[1-(Benzofuran-2-yl)ethylidenehydrazono]-5-(2-oxoindolin-3-ylidene)-3-(4-methoxyphenyl)thiazolidin-4-one] | 11.41 µg/mL | 11.41 µg/mL | 28.67 µg/mL | 28.67 µg/mL | potential in vitro anticancer activity | 0.37 | 3.40 µg/mL | 3.40 µg/mL | –
34.3 µg/mL (≈ 70.7 µM) | < 50 µg/mL | – | CC(=NN=C1SC(=C2C(=O)Nc3ccccc32)C(=O)N1C1CCCCC1)c1cc2ccccc2o1 [Compound 6d, 2-[1-(Benzofuran-2-yl)ethylidenehydrazono]-5-(2-oxoindolin-3-ylidene)-3-cyclohexylthiazolidin-4-one] | 5.21 µg/mL | 5.21 µg/mL | 14.32 µg/mL | 14.32 µg/mL | potential in vitro anticancer activity | 0.42 | 7.31 µg/mL | 7.31 µg/mL | –
